The text below walks through data of patent US10442796B2, “2,3,5-substituted thiophene compound as protein kinase inhibitor” (KOREA INSTITUTE OF SCIENCE AND TECHNOLOGY, priority 2016, dated 2019).

Each structure is given as a SMILES string. Changes are numbered by the printed parent chain. Where a name gives a salt, the structure may show the parent alone. Bounds are passed on as bounds.

For assay [1], the target named is T1, FLT3-ITD-F691L Ba/F3 cells (Homo sapiens, UniProt P36888, F691L, cells depend on it, form not given).
T1 sequence (P36888 1-993 F691L): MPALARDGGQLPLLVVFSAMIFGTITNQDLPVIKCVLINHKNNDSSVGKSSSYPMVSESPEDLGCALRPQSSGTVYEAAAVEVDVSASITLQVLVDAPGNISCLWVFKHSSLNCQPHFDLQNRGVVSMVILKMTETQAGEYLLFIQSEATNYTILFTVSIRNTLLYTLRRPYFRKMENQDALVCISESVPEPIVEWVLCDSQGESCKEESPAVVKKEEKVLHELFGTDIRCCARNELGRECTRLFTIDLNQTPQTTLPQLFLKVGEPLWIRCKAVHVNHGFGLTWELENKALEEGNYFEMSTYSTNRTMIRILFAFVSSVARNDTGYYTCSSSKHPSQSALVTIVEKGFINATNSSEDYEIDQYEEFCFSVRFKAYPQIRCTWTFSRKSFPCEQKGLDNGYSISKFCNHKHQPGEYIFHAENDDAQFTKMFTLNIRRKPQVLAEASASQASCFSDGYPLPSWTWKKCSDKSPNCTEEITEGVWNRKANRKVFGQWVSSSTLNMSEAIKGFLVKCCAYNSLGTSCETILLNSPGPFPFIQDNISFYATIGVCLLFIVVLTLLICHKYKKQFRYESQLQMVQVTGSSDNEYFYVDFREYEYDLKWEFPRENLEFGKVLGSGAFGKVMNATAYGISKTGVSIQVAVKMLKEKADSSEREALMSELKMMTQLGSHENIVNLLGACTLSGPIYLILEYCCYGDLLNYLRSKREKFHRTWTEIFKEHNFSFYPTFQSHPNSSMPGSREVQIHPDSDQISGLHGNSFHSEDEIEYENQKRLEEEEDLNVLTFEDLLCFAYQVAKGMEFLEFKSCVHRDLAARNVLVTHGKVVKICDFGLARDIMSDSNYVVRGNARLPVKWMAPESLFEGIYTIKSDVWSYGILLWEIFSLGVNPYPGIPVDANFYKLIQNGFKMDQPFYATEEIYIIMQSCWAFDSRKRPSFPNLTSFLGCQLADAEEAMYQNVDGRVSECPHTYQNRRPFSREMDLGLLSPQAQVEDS
In words: Growth inhibitory activity against Ba/F3 cell line. Type of assay: cell-based. The settings on record: Ba/F3 expressing FLT3-ITD-F691L; 72 hours; cell titer glo; read-out: IC50 (uM) FLT3-ITD-F691L. On the procedure: (§1) A Ba/F3 cell line expressing an FLT3 mutation gene was cultured in a culture solution including 90% RPMI, 10% FBS, and an antibiotic (Welgene). 100 uL of the Ba/F3 cell line was put into each of 5,000 wells of a TC-treated 96 well plate (SPL), and then 1 uL of a test compound diluted in dimethylsulfoxide (diluted for each 3 paint from a concentration of 1 mM, total 10 concentrations) was each injected thereinto. Thereafter, the resulting cell lines were incubated in a cell culture incubator for 72 hours. 50 uL of a cell titer glo (Promega) solution was added thereto, the resulting mixture was stored at room temperature for 10 minutes, and then the light emission intensity was measured by using a reader (Envision, PerkinElmer). The light emission intensity was shown as a graph for each final concentration of the test compound, and the GI50 value was obtained by using a Prism 5.0 (GraphPad) software.
(Cellular ATP, detected with luciferase, serves as a proxy for viable cell number.)

Assay [2] has as its target T2, FLT3-ITD-F691L-D835Y Ba/F3 cells (Homo sapiens, UniProt P36888, F691L/D835Y, cells depend on it, form not given).
T2 sequence (P36888 1-993 F691L/D835Y): T1 sequence (P36888 1-993 F691L) with D835Y
Kind of assay: Growth inhibitory activity against Ba/F3 cell line. In kind it is cell-based. The settings on record: Ba/F3 expressing FLT3-ITD-F691L-D835Y; 72 hours; cell titer glo; read-out: IC50 (uM) FLT3-ITD-F691L-D835Y. The procedure: as §1

As for `Cc1ccc(C#Cc2cc(NC(N)=O)c(C(=O)N[C@H]3CCCNC3)s2)cc1` [Example 24, (S)—N-(piperidin-3-yl)-5-(p-tolylethynyl)-3-ureidothiophene-2-carboxamide], the GI50 in assay [1] came out at 0.058 µM; in assay [2] it was 0.002 µM.

Turning to `Cn1cc(C#Cc2cc(NC(N)=O)c(C(=O)NC3CCNC3)s2)cn1` (centres unmarked) [Example 39, 5-((1-methyl-1H-pyrazol-4-yl)ethynyl)-N-(pyrrolidin-3-yl)-3-ureidothiophene-2-carboxamide trifluoroacetate], the GI50 worked out at 19.1 µM in assay [1] and 1.24 µM in assay [2].

Take `NC(=O)Nc1cc(C#Cc2cccc(F)c2)sc1C(=O)NC1CCNC1` (centres unmarked) [Example 40, 5-((3-fluorophenyl)ethynyl)-N-(pyrrolidin-3-yl)-3-ureidothiophene-2-carboxamide]: the GI50 in assay [1] is 0.848 µM; in assay [2], 0.079 µM.

For the compound `Cn1cc(C#Cc2cc(NC(N)=O)c(C(=O)N[C@H]3CCCCNC3)s2)cn1` [Example 41, (S)—N-(azepan-3-yl)-5-((1-methyl-1H-pyrazol-4-yl)ethynyl)-3-ureidothiophene-2-carboxamide trifluoroacetate], the GI50 was determined as 0.078 µM in assay [1] and 0.007 µM in assay [2].

Consider `NC(=O)Nc1cc(C#Cc2cn[nH]c2)sc1C(=O)N[C@H]1CCCCNC1` [Example 42, (S)-5-((1H-pyrazol-4-yl)ethynyl)-N-(azepan-3-yl)-3-ureidothiophene-2-carboxamide trifluoroacetate], for which the GI50 in assay [1] worked out at 5.23 µM; in assay [2], 0.116 µM.

As for `CCn1cc(C#Cc2cc(NC(N)=O)c(C(=O)N[C@H]3CCCCNC3)s2)cn1` [Example 43, (S)—N-(azepan-3-yl)-5-((l-ethyl-1H-pyrazol-4-yl)ethynyl)-3-ureidothiophene-2-carboxamide trifluoroacetate], the GI50 in assay [1] came out at 0.2 µM; in assay [2], 0.006 µM.

For `CC(C)n1cc(C#Cc2cc(NC(N)=O)c(C(=O)N[C@H]3CCCCNC3)s2)cn1` [Example 44, (S)—N-(azepan-3-yl)-5-((1-isopropyl-1H-pyrazol-4-yl)ethynyl)-3-ureidothiophene-2-carboxamide trifluoroacetate], the GI50 in assay [1] came out at 0.214 µM; in assay [2], 0.004 µM.

In the case of `COCCn1cc(C#Cc2cc(NC(N)=O)c(C(=O)N[C@H]3CCCCNC3)s2)cn1` [Example 45, (S)—N-(azepan-3-yl)-5-((1-(2-methoxyethyl)-1H-pyrazol-4-yl)ethynyl)-3-ureidothiophene-2-carboxamide trifluoroacetate], the GI50 is 1.34 µM in assay [1] and 0.019 µM in assay [2].

Take `NC(=O)Nc1cc(C#Cc2cnn(C3CCOCC3)c2)sc1C(=O)N[C@H]1CCCCNC1` [Example 46, (S)—N-(azepan-3-yl)-5-((1-(tetrahydro-2H-pyran-4-yl)-1H-pyrazol-4-yl)ethynyl)-3-ureidothiophene-2-carboxamide trifluoroacetate]: the GI50 in assay [1] was 0.075 µM; in assay [2], 0.003 µM.

Take `CS(=O)(=O)N1CCC(n2cc(C#Cc3cc(NC(N)=O)c(C(=O)N[C@H]4CCCCNC4)s3)cn2)CC1` [Example 47, (S)—N-(azepan-3-yl)-5-((1-(1-(methylsulfonyl)piperidin-4-yl)-1H-pyrazol-4-yl)ethynyl)-3-ureidothiophene-2-carboxamide trifluoroacetate]: the GI50 in assay [1] came out at 0.645 µM; in assay [2] it was 0.04 µM.

For `NC(=O)Nc1cc(C#Cc2ccsc2)sc1C(=O)N[C@H]1CCCCNC1` [Example 48, (S)—N-(azepan-3-yl)-5-(thiophen-3-ylethynyl)-3-ureidothiophene-2-carboxamide trifluoroacetate], the GI50 in assay [1] was 0.083 µM; in assay [2], 0.004 µM.

Regarding `CC(=O)N1CCC(n2cc(C#Cc3cc(NC(N)=O)c(C(=O)N[C@H]4CCCCNC4)s3)cn2)CC1` [Example 49], the values for the GI50 in assay [1] and in assay [2] were 0.616 µM and 0.031 µM, respectively.

Take `NC(=O)Nc1cc(C#Cc2cccc(F)c2)sc1C(=O)N[C@H]1CCCCNC1` [Example 50, (S)—N-(azepan-3-yl)-5-((3-fluorophenyl)ethynyl)-3-ureidothiophene-2-carboxamide]: the GI50 in assay [1] worked out at 0.174 µM; in assay [2] it was 0.006 µM.

As to `Cn1cc(CCc2cc(NC(N)=O)c(C(=O)N[C@H]3CCCCNC3)s2)cn1` [Example 52, (S)—N-(azepan-3-yl)-5-(2-(1-methyl-1H-pyrazol-4-yl)ethyl)-3-ureidothiophene-2-carboxamide trifluoroacetate], the GI50 was more than 100 µM in assay [1] and more than 4 µM in assay [2].

`NC(=O)Nc1cc(CCc2cccc(F)c2)sc1C(=O)N[C@H]1CCCNC1` [Example 53]: the GI50 in assay [1] was 1.39 µM; in assay [2], 0.149 µM.

As to `NC(=O)Nc1cc(CCc2cccc(F)c2)sc1C(=O)N[C@H]1CCCCNC1` [Example 54, (S)—N-(azepan-3-yl)-5-(3-fluorophenethyl)-3-ureidothiophene-2-carboxamide], the GI50 in assay [1] amounted to 7.47 µM; in assay [2], 1.02 µM.
